From patent US7101707B2, “Secondary sprouting for isolation and expansion of endothelial sprout cells and endothelial precursor cells from a mixed population and for screening substances” (Cedars-Sinai Medical Center, priority 2002, dated 2006)
Entries after “also recorded” stand apart in the source; their conditions may differ.

Assays:
bovine REC [1] = assay: REC proliferation assay (MTS); assay type: cell-based
Method: REC proliferation and survival assays. 96-well plates were coated with various amounts of TN-C or vehicle. 5×10^3 cells were added to each triplicate well in low-serum REC medium with various amounts of growth factors (0.5% FCS incomplete BREC medium containing 10 ng/ml of human IGF-I, FGF-2, VEGF, PlGF and PDGF-BB [R&D Systems Inc., Minneapolis, Minn.]). Cell numbers were determined on days 4–7 using the MTS cell proliferation assay (Promega Corp.) according to manufacturer's instructions. Survival was measured in the same way using high glucose (30 mM) or chemical hypoxia (2 mM sodium azide) or serum-free medium to induce cell death. Cell numbers were determined on days 4–7 using MTS assay (Promega).

bovine REC [2] = assay: Secondary sprouting assay on reconstituted basement membrane matrix (MTS); assay type: cell-based
Method: (§1) In vitro MATRIGEL™ biological cell culture substrate assay of capillary-like tube formation and secondary sprouting. […] Briefly, 50 μL of reconstituted basement membrane matrix from mouse EHS tumor (BD or GFR MATRIGEL™ biological cell culture substrate; Becton Dickinson Labware, Bedford, Mass.) were dispensed with frozen pipettes into each well of a previously frozen, sterile 96-well plate sitting on wet ice and allowed to solidify for 1 hr at room temperature or 37° C. Approximately 5×10^4 or 7.5×10^4 REC in a 100 μL volume were seeded into each triplicate well. Human recombinant or purified growth factors were added to a final concentration of 10 ng/mL (or as noted) in 0.5% FCS incomplete BREC medium. Capillary-like tube structures formed by REC on reconstituted basement membrane matrix were photographed at various intervals ranging from 12–72 hr; pictures were scanned, digitized and analyzed using image-processing software.
For the secondary sprouting assay, cells on reconstituted basement membrane matrix were seeded as above but incubated in 0.5% FCS incomplete BREC medium without any growth factors for 3 days, allowing for tube formation and collapse. On day 3, human recombinant or purified growth factors were added to a final concentration of 10 ng/mL (or as noted) in low-serum incomplete BREC medium and incubated for another 5–6 days. Digital photographs were obtained with a Kodak MDS 100 camera attached to a Leitz DM IL inverted microscope. Digitized images obtained with a Kodak MDS 100 video camera were stored on compact discs and quantified with NIH Image 1.62 software. The number of living cells in the sprouting colonies were determined using the MTS cell proliferation assay.
A good correlation was observed between the spherical volume and the number of live cells in secondary sprouting colonies (not shown). Since the latter is an easy parameter to test by using the MTS assay, it was adopted as a faster method for studying the effect of various agents on secondary sprouting.

bovine REC [3] = assay: Migration (wound healing) assay; assay type: cell-based
Method: Migration assay. REC migration rates were examined in a wound healing assay, where cells migrate over time into the scrape wound in a monolayer. Briefly, cells were seeded in 24-well plates and allowed to reach confluence in growth medium. Prior to growth factor treatment, cells were serum-starved overnight in incomplete BREC medium with 0.5% FCS. All monolayers within an experiment were wounded with a single sterile wood stick of constant diameter, to ensure uniformity in the wound areas among different treatments. Wounded monolayers were then rinsed with low-serum medium to remove detached cells and treated with various combinations of human growth factors at 10 ng/mL each. On day 7, cells were rinsed 3× with PBS and fixed with methanol for 15 min, rehydrated with dH2O and stained with Meyer's hematoxylin for 5 min, followed by destaining with dH2O. All wells were photographed with a 4× or 10× objective using a Kodak MDS 100 digital camera attached to a Leitz DM IL inverted microscope. The original wound area was measured at 0 hr and used as a baseline for comparison to the treated wells at the conclusion of the experiment. The number of cells migrated into the wound was determined. Migrating cell counting was automated using the AAB (Advanced American Biotechnology, Fullerton, Calif.) software. Data were calculated and statistically analyzed (Spirin K S et al., Basement membrane and growth factor gene expression in normal and diabetic human retinas, Curr. Eye Res. 18:490–499 [1999]) relative to control cultures that received the same concentrations of bovine serum albumin instead of growth factors and/or inhibitor, compared to vehicle instead of inhibitor after wounding. Inhibitors were added 30 min before growth factors.

REC = assay: Capillary-like tube formation on MATRIGEL; assay type: cell-based, bovine
Method: as §1

[4] = system: retinal neovascularization; assay: Oxygen-induced retinopathy in newborn mice; assay type: in vivo, mouse
[5] = Solubility of emodin in injection vehicle; assay type: physicochemical; conditions: phosphate-buffered saline with 20% PEG 400 + 2% Tween-80, pH 7.2
Method: A minimum of 5 mouse pups were used per group. Emodin at 20–30 μg/g of body mass (or 10 μl/g) was prepared as a solution (70% ethanol) or suspension (PEG-Tween) in vehicle. Vehicle (“emodin solvent”) was 70% ethanol in initial experiments. In three later experiments, phosphate-buffered saline with 20% polyethylene glycol 400 (PEG 400)+2% Tween-80, pH 7.2, was used as vehicle.

telomerase = assay: Telomerase assay (TRAP) in cultured endothelial cells; assay type: cell-based
Excerpt: Cells in secondary sprouting colonies contained high telomerase activity (FIG. 10, 3rd column) when compared to the parental cells (1st column), as measured by telomerase assay (TRAP; Yang, J., et al., Stem and germline cells are among the only cells in postnatal tissues that continue to express telomerase activity, J. Biol. Chem. 274(37):26141–26148 [1999]; Hsiao, R. et al., Mature endothelial cells express very low levels of telomerase and it's lost during the first five divisions in vitro, Anticancer Res 17:827–832 [1997]; Kolquist, K A et al., Nature Genet 19:182–186 [1998] as reviewed by Chang E et al. J. Invest. Dermatol. 118:752–8. [2002]). This enzyme activity is either very low or absent in aging or differentiated cells, but it is high in precursors. (Armstrong et al., mTert expression correlates with telomerase activity during the differentiation of murine embryonic stem cells. Mech Dev. 2000. 97(1–2):109–116). Telomerase activity is also high in invasive and highly proliferative cancers but not in normal adult cells. (Blasco et al., Telomeres and telomerase. Genes & Development. 1999. 13:2353–2359).

[6] = system: secondary sprouting colonies; assay: Marker expression in secondary sprouting colonies (RT-PCR, immunofluorescence); assay type: cell-based; conditions: treatment of secondary sprouting colonies
Method: Detection of markers expressed by cells selected from secondary sprouting colonies was carried out using reverse-transcriptase polymerase chain reaction (RT-PCR) with RNA derived from secondary sprouting cells, which was compared to RNA derived from non-sprouting cells. The RT-PCR method allows the detection of low-levels of message coding for the above-mentioned markers. Following manufacturer's instructions, RNA isolation was done with a QiaShredder kit (Qiagen) on isolated sprouts (scooped out of MATRIGEL™ biological cell culture substrate) followed by use of the RNAeasy kit (Qiagen), and the RT-reaction was conducted using a SMART cDNA kit (Clontech) and the RT-PCR protocol, as described in Hamdi et al., Biochem Biophys Res Commun. 295(3):668–72 [Jul. 19, 2002] but using approx. 50 ng of cDNA instead of genomic DNA per PCR reaction. The following primers were used: […]

[7] = basal and growth factor-stimulated (CK2 blockers), H-7 preliminary, not shown

## Cc1cc(O)c2c(c1)C(=O)c1cc(O)cc(O)c1C2=O [emodin, 3-methyl-1,6,8-trihydroxyanthraquinone]
Bovine REC [1]; [7]
  effect of kinase inhibitors on proliferation: potently inhibited
Bovine REC [2]; [7]
  effect of kinase inhibitors on secondary sprouting: potently inhibited
Bovine REC [3]; [7]
  effect of kinase inhibitors on migration: potently inhibited
Bovine REC [3]; four GFs 10 ng/ml each, 7 days, 0.5% serum, emodin 10 μM, DRB 15 μM
  effect on growth factor-mediated cell migration: significant inhibitory effect
REC; [7]
  effect of kinase inhibitors on tube formation: potently inhibited
[4]; intraperitoneal
  neovascular tufts in fluorescein angiograms vs vehicle control: much less pronounced
  retinal vascularization in fluorescein angiograms vs vehicle control: significantly less vascularization
[4]; two intraperitoneal injections daily, day 11 to 17 after birth, emodin 20–30 μg/g, vs untreated or vehicle
  diminution of retinal neovascularization (preretinal nuclei count): 70–75%
[5]
  solubility in vehicle: did not ensure emodin solubility

## PDGF-BB: platelet derived growth factor (PDGF)-BB, human recombinant or purified angiogenic growth factor
Bovine REC [1]; growth factors 10 ng/mL each
  effect of growth factors on REC proliferation: potent stimulator
Bovine REC [2]; 10 ng/mL
  morphology of sprouting colonies after growth factor treatment: shorter and thicker sprouts
Bovine REC [2]; 10 ng/mL, 0.5% FCS medium
  effect of growth factors on secondary sprouting (live cell number): potently stimulated; also recorded: most potent single growth factor; also recorded: potent stimulator; also recorded: dramatic increase; also recorded: greatly enhanced; also recorded: the most potent
Bovine REC [2]; PDGF-BB 1 ng/mL ± VEGF, IGF-I, PlGF or FGF-2 10 ng/mL, added day 3
  additivity of effect on secondary sprouting with individual growth factors: not additive or synergistic; also recorded: not additive
Bovine REC [2]; growth factor added after the tubes had collapsed (day 3)
  effect on secondary sprouting when added after tube collapse: again increased secondary sprouting
Bovine REC [2]; growth factors, live cells by MTS
  stimulation of secondary sprouting (fold, on average): three-fold
Bovine REC [2]; three growth factors 10 ng/mL each plus fourth factor 0–100 ng/mL, added day 3
  additivity of effect on secondary sprouting with combinations of three growth factors: potentiated their responses; also recorded: additive
Bovine REC [3]; growth factors 10 ng/mL each
  effect of growth factors on REC migration: potent stimulator
REC; growth factors 10 ng/mL each
  effect of growth factors on tube formation: pro-collapsing factor
telomerase; differentiative culture conditions (plastic, no MATRIGEL)
  telomerase activity of differentiated endothelial cells: opposite effect
telomerase; expansive culture conditions (MATRIGEL, low serum medium)
  telomerase activity of sprouting colonies: increases the activity of telomerase
[6]
  expression of AC133, CD166, AML-1, uPA, tPA: increased the expression
